For the assay, the target named is Coagulation factor X (Homo sapiens, UniProt P00742). In words: Inhibitory activity against human Coagulation factor X in a purified enzyme system.

From ChEMBL document CHEMBL1136317, “A general synthesis of 1-aryl carbamoyl-2-alkyl-4-aryl substituted semicarbazides as nonbasic factor Xa inhibitors” (Bioorg Med Chem Lett, 2003) come the findings set out here.

Chain of Coagulation factor X (P00742 41-179 limits assumed): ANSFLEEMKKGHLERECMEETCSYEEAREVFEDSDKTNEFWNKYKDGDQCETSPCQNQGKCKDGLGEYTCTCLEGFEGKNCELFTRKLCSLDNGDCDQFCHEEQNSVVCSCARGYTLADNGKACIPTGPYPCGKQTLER
Chain of Coagulation factor X (P00742 235-488 limits assumed): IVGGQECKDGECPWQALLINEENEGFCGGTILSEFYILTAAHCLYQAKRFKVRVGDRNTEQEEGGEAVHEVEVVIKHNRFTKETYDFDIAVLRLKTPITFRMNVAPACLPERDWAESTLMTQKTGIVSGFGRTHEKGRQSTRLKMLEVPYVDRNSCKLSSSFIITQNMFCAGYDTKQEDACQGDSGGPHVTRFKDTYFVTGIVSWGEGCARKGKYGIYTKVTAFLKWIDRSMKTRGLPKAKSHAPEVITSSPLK

On to `CC(NC(=O)Nc1ccc(Cl)cc1)C(=O)Nc1ccc(N2CCOCC2=O)cc1` (single isomer, unassigned), for which the IC50 stood at 78 nM. In turn, `CCC(NC(=O)Nc1ccc(Cl)cc1)C(=O)Nc1ccc(N2CCOCC2=O)cc1` (single isomer, unassigned) gave an IC50 of 17 nM.

A word on the IC50: it is the concentration needed to halve the response being measured. Low values mean greater potency in that assay, high ones weaker potency in that assay.
